Patent publication US5447942A, “N-derivatives of (phenylethyl-β-ol) amine, a process for their preparation and pharamaceutical compositions containing the same” (Societe de Conseils de Recherches et d'Applications …, priority 1992, dated 1995)
Read-outs that look alike come from different tables or passages of the source.

Key:
β adrenoceptors = assay: radioligand binding studies in lung membrane (Table A, binding affinity)
From the text: The results are summarised in Table A. Generally, the activity is better for the trans than the cis isomer.

[1] = system: acetylcholine induced bronchoconstriction; assay: inhibition of acetylcholine induced bronchoconstriction, Konzett and Rossler method (Table B); assay type: in vivo, Male Hartley Guinea Pigs; details: IV; for inhibition in vivo at 4.6 µmol/kg / inhibition in vivo at 1.5 µmol/kg / inhibition in vivo at 0.42 µmol/kg / inhibition in vivo at 4.18 µmol/kg / inhibition in vivo at 4.8 µmol/kg / inhibition in vivo at 0.47 µmol/kg / inhibition in vivo at 0.13 µmol/kg / inhibition in vivo at 1.6 µmol/kg: Cavia porcellus
Description: Male Hartley Guinea Pigs (450-500 g) were anaesthetised with ethyl carbamate and prepared for recording bronchoconstriction according to Konzett and Rossler method (Naunym Schmiedebergers Arch. Exp. Path. Pharmakol (1940) 195, 71). To abolish spontaneous respiration, an injection IV of vecuronium bromide (2 mg/kg) was made. Bronchoconstriction was induced by IV injection of Acetylcholine and the animals received one dose of β agonist compound (IV) 5 minutes later.

α, receptor = assay: binding α receptor
[2] = system: isolated aorta contraction induced by phenylephrine; assay: inhibition of isolated aorta contraction induced by phenylephrine
[3] = 5 min, 0.42 μmol/kg, 5 mn, read-out: bronchoconstriction protection, score 5 mn
[4] = 0.25 h, 0.42 μmol/kg, 15 mn, read-out: bronchoconstriction protection, score 15 mn
[5] = 0.5 h, 0.42 μmol/kg, 30 mn, read-out: bronchoconstriction protection, score 30 mn
[6] = 5 min, 0.13 μmol/kg, 5 mn, read-out: bronchoconstriction protection, score 5 mn
[7] = 0.25 h, 0.13 μmol/kg, 15 mn, read-out: bronchoconstriction protection, score 15 mn
[8] = 0.5 h, 0.13 μmol/kg, 30 mn, read-out: bronchoconstriction protection, score 30 mn
[9] = 5 min, 1.6 μmol/kg, 5 mn, read-out: bronchoconstriction protection, score 5 mn
[10] = 0.25 h, 1.6 μmol/kg, 15 mn, read-out: bronchoconstriction protection, score 15 mn
[11] = 0.5 h, 1.6 μmol/kg, 30 mn, read-out: bronchoconstriction protection, score 30 mn

COc1cc([C@H]2CC[C@@H](CNCC(O)c3ccc(O)c(CO)c3)O2)cc(OC)c1OC (relative stereo) [Example 2 (cis), 2-(3',4',5'-trimethoxyphenyl)-5-[N-[β-(3'-hydroxymethyl-4'-hydroxy-phenyl)-β-hydroxy-ethyl]-aminomethyl]-tetrahydrofuran]
Ki (β adrenoceptors): 410 nM | bronchoconstriction protection, duration of action ([1]; 4.6 μmol/kg): 5 mn | inhibition in vivo at 4.6 µmol/kg ([1]; 5 min, 4.6 μmol/kg, 5 mn, read-out: bronchoconstriction protection, score 5 mn): 20 to 50% | inhibition in vivo at 4.6 µmol/kg ([1]; 0.25 h, 4.6 μmol/kg, 15 mn, read-out: bronchoconstriction protection, score 15 mn): < 20% | inhibition in vivo at 4.6 µmol/kg ([1]; 0.5 h, 4.6 μmol/kg, 30 mn, read-out: bronchoconstriction protection, score 30 mn): < 20% | Ki (α, receptor): 61 nM | pA2, inhibitor of isolated aorta contraction induced by phenylephrine [2]: 7.75

COc1cc([C@H]2CC[C@@H](CCNCC(O)c3ccc(O)c(CO)c3)O2)cc(OC)c1OC (relative stereo) [Example 14 (cis), 2-(3',4',5'-trimethoxyphenyl)-5-[N-[β-(3'-hydroxymethyl-4'-hydroxy-phenyl)-β-hydroxy-ethyl]-aminoethyl]-tetrahydrofuran]
Ki (β adrenoceptors): 1900 nM | bronchoconstriction protection, duration of action ([1]; 1.5 μmol/kg): 30 mn | inhibition in vivo at 1.5 µmol/kg ([1]; 5 min, 1.5 μmol/kg, 5 mn, read-out: bronchoconstriction protection, score 5 mn): > 75% | inhibition in vivo at 1.5 µmol/kg ([1]; 0.25 h, 1.5 μmol/kg, 15 mn, read-out: bronchoconstriction protection, score 15 mn): 20 to 50% | inhibition in vivo at 1.5 µmol/kg ([1]; 0.5 h, 1.5 μmol/kg, 30 mn, read-out: bronchoconstriction protection, score 30 mn): 20 to 50%

COc1cc([C@H]2CC[C@H](CCCNCC(O)c3ccc(O)c(CO)c3)O2)cc(OC)c1OC (relative stereo) [Example 15 (trans), 2-(3',4',5'-trimethoxyphenyl)-5-[-N-[β-(3'-hydroxymethyl-4'-hydroxy-phenyl)-β-hydroxy-ethyl]-aminopropyl]-tetrahydrofuran]
Ki (β adrenoceptors): 760 nM | bronchoconstriction protection, duration of action ([1]; 0.42 μmol/kg): 20 mn | bronchoconstriction protection, duration of action ([1]; 4.18 μmol/kg): > 50 mn | inhibition in vivo at 0.42 µmol/kg [1, 3]: > 75% | inhibition in vivo at 4.18 µmol/kg ([1]; 5 min, 4.18 μmol/kg, 5 mn, read-out: bronchoconstriction protection, score 5 mn): > 75% | inhibition in vivo at 0.42 µmol/kg [1, 4]: 50 to 75% | inhibition in vivo at 4.18 µmol/kg ([1]; 0.25 h, 4.18 μmol/kg, 15 mn, read-out: bronchoconstriction protection, score 15 mn): > 75% | inhibition in vivo at 0.42 µmol/kg [1, 5]: < 20% | inhibition in vivo at 4.18 µmol/kg ([1]; 0.5 h, 4.18 μmol/kg, 30 mn, read-out: bronchoconstriction protection, score 30 mn): 50 to 75%

OCc1cc(C(O)CNCC2CCC(c3ccccc3)O2)ccc1O (stereo not drawn) [Example 1, 2-phenyl-5-[N-[β-(3'-hydroxymethyl-4'-hydroxy-phenyl)-β-hydroxy-ethyl]aminomethyl]-tetrahydrofuran]
Ki (β adrenoceptors): 410 nM | bronchoconstriction protection, duration of action ([1]; 4.8 μmol/kg): 0 mn | inhibition in vivo at 4.8 µmol/kg ([1]; 5 min, 4.8 μmol/kg, 5 mn, read-out: bronchoconstriction protection, score 5 mn): < 20% | inhibition in vivo at 4.8 µmol/kg ([1]; 0.25 h, 4.8 μmol/kg, 15 mn, read-out: bronchoconstriction protection, score 15 mn): < 20% | inhibition in vivo at 4.8 µmol/kg ([1]; 0.5 h, 4.8 μmol/kg, 30 mn, read-out: bronchoconstriction protection, score 30 mn): < 20%

OCc1cc(C(O)CNCC2CCC(c3ccccc3F)O2)ccc1O (stereo not drawn) [Example 6, 2-(2'-fluorophenyl)-5-[N-[β-(3'-hydroxymethyl-4'-hydroxy-phenyl)-β-hydroxy-ethyl]-aminomethyl]-tetrahydrofuran]
Ki (β adrenoceptors): 1800 nM | bronchoconstriction protection, duration of action ([1]; 0.47 μmol/kg): < 30 mn | inhibition in vivo at 0.47 µmol/kg ([1]; 5 min, 0.47 μmol/kg, 5 mn, read-out: bronchoconstriction protection, score 5 mn): 50 to 75% | inhibition in vivo at 0.47 µmol/kg ([1]; 0.25 h, 0.47 μmol/kg, 15 mn, read-out: bronchoconstriction protection, score 15 mn): 20 to 50% | inhibition in vivo at 0.47 µmol/kg ([1]; 0.5 h, 0.47 μmol/kg, 30 mn, read-out: bronchoconstriction protection, score 30 mn): 20 to 50%

OCc1cc(C(O)CNCC2CCC(c3ccncc3)O2)ccc1O (stereo not drawn) [Example 12, 2-(4'-pyridyl)-5-[N-[β-(3'-hydroxymethyl-4'-hydroxy-phenyl)-β-hydroxy-ethyl]-aminomethyl]-tetrahydrofuran]
Ki (β adrenoceptors): 350 nM | bronchoconstriction protection, duration of action ([1]; 0.13 μmol/kg): > 30 mn | bronchoconstriction protection, duration of action ([1]; 0.42 μmol/kg): > 30 mn | inhibition in vivo at 0.13 µmol/kg [1, 6]: 50 to 75% | inhibition in vivo at 0.42 µmol/kg [1, 3]: 50 to 75% | inhibition in vivo at 0.13 µmol/kg [1, 7]: 20 to 50% | inhibition in vivo at 0.42 µmol/kg [1, 4]: 50 to 75% | inhibition in vivo at 0.13 µmol/kg [1, 8]: 20 to 50% | inhibition in vivo at 0.42 µmol/kg [1, 5]: 20 to 50%

OCc1cc(C(O)CNCCCC2CCC(c3ccccc3Cl)O2)ccc1O (stereo not drawn) [Example 16, 2-(2'-chlorophenyl)-5-[N-[β-(3'-hydroxymethyl-4'-hydroxy-phenyl)-β-hydroxy-ethyl]-aminopropyl]-tetrahydrofuran]
Ki (β adrenoceptors): 570 nM | bronchoconstriction protection, duration of action ([1]; 1.6 μmol/kg): > 15 mn | inhibition in vivo at 1.6 µmol/kg [1, 9]: 20 to 50% | inhibition in vivo at 1.6 µmol/kg [1, 10]: 20 to 50% | inhibition in vivo at 1.6 µmol/kg [1, 11]: < 20%

COc1cc(C2CC(CNCC(O)c3ccc(O)c(CO)c3)CO2)cc(OC)c1OC (centres unmarked) [Example 18]
Ki (β adrenoceptors): 1600 nM | bronchoconstriction protection, duration of action ([1]; 1.6 μmol/kg): 30 mn | inhibition in vivo at 1.6 µmol/kg [1, 9]: 50 to 75% | inhibition in vivo at 1.6 µmol/kg [1, 10]: 20 to 50% | inhibition in vivo at 1.6 µmol/kg [1, 11]: 20 to 50%

CC(C)(C)NCC(O)c1ccc(O)c(CO)c1 (centres unmarked) [Salbutamol, reference compound]
Ki (β adrenoceptors): 2500 nM | bronchoconstriction protection, duration of action ([1]; 0.13 μmol/kg): 10 mn | bronchoconstriction protection, duration of action ([1]; 0.42 μmol/kg): 30 mn | inhibition in vivo at 0.13 µmol/kg [1, 6]: > 75% | inhibition in vivo at 0.42 µmol/kg [1, 3]: > 75% | inhibition in vivo at 0.13 µmol/kg [1, 7]: < 20% | inhibition in vivo at 0.42 µmol/kg [1, 4]: > 75% | inhibition in vivo at 0.13 µmol/kg [1, 8]: < 20% | inhibition in vivo at 0.42 µmol/kg [1, 5]: < 20%
